According to patent US20240327364A1, “THERAPEUTIC TARGETING OF GPR68 TO INDUCE FERROPTOSIS” (University Of Maryland, Baltimore, priority 2023, published 2024):
Read-outs that look alike come from different tables or passages of the source.

Assays:
NIM1 = target: T1, NIM1 (Homo sapiens, UniProt Q8IY84); experiment: KinomeScan; type: binding; conditions: read-out: % Control
T1 construct: purchased DiscoveRx

GPR68/OGR1 = target: T2, GPR68/OGR1 (Homo sapiens, UniProt Q15743); experiment: CHEM1-OGR1 cells Fluo-8 calcium assay, acidified media pH 6.4; type: cell-based
T2 construct: host or cells: Chem-1 (CHEM1-OGR1) cells
T2 sequence (Q15743 whole entry): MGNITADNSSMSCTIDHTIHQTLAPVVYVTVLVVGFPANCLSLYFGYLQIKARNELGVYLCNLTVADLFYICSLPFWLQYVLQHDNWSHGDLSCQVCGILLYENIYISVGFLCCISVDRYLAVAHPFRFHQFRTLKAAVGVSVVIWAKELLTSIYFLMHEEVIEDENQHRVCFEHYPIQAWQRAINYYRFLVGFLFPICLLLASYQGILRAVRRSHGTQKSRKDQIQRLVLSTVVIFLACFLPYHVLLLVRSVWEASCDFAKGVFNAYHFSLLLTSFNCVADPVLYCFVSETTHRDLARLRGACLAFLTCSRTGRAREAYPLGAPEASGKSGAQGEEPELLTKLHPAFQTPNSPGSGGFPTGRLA
Description: Briefly, the methods were: On the day before the assay 20,000 cells per well of CHEM1-OGR1 cells were plated in 10% DMEM containing 10% FBS and 1% Pen/Strep into a 96 well plate. After 24 hours media was removed and cells were stained with 80 μL Fluo-8 calcium indicator dye according to manufacturer's protocol. After staining cells were treated with 20 uL of 4× concentration of test compounds. Using kinetic imaging in the Lionheart HCS fluorescence intensity was continuously measure at 10 frames per second, for 5 seconds before 100 μL of acidified media was added to the well resulting in a pH of 6.4. A ratio of fluorescence intensities prior to addition and at peak were calculated and averaged. The resulting data were platted and using a 4 parameter logistic regression EC50 (the concentration causing 50% effective inhibition) for each test compound was determined.

EGFR(L858R) = target: T3, EGFR(L858R) (Homo sapiens, UniProt P00533, L858R); experiment: KinomeScan; type: binding; conditions: read-out: % Control
T3 construct: purchased DiscoveRx (Fremont, CA), KinomeScan service

MKK7 = target: T4, MKK7 (Homo sapiens, UniProt O14733); experiment: KinomeScan; type: binding; conditions: read-out: % Control
T4 construct: purchased DiscoveRx

GPR68 = GPR68 (Homo sapiens, UniProt Q15743); experiment: Chem1-OGR1 cells washout (reversibility); type: cell-based; design: host or cells: Chem-1 cells (Chem1-OGR1); conditions: for reversibility of GPR68 inhibition: washout
Sequence of GPR68 (Q15743 whole entry): as above
Description: Chem1-GPR68 reporter cells were treated with 20 uM OM8345 for 2 hours and then rinsed with HBSS. […] The GPR68 inhibitory activity of OGM analogs segregated with the ability of the molecule to induce the phenotype in zebrafish.
Additional experiments, whereby OGM2 was resynthesized and used (due to its submicromolar potency and GPR68 specificity) were performed. See FIG. 6A (HNMR of resynthesis of OGM2) and FIG. 6B (LCMS of resynthesis of OGM2). To test the possibility of OGM2 being an irreversible inhibitor, Chem1-OGR1 cells (Millipore™) were incubated with 10 μM OGM2 for 4 hours, and after removing the compound stimulated with pH 6.4 medium. […] Time till 50% max ˜52 minutes. The signal returned back towards baseline uninhibited levels in a rapid and time-dependent manner.

NLK = target: T5, NLK (Homo sapiens, UniProt Q9UBE8); experiment: KinomeScan; type: binding; conditions: read-out: % Control
T5 construct: purchased DiscoveRx

INK2 = target: T6, INK2 (Homo sapiens, UniProt P45984); experiment: KinomeScan; type: binding; conditions: read-out: % Control
T6 construct: purchased DiscoveRx
T6 sequence (P45984 whole entry): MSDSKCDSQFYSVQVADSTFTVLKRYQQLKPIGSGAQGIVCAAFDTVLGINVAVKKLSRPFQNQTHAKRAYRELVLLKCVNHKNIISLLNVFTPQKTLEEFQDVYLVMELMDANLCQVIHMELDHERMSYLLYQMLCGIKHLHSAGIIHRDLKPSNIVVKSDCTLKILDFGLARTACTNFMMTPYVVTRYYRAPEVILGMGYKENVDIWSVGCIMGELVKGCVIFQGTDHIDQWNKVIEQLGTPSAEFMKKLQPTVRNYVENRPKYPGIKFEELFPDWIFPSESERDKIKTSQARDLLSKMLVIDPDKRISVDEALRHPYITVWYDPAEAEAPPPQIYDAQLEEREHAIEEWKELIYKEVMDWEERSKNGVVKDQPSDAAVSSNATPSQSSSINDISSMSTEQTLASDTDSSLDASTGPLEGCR

EPHB3 = target: T7, EPHB3 (Homo sapiens, UniProt P54753); experiment: KinomeScan; type: binding; conditions: read-out: % Control
T7 construct: purchased DiscoveRx (Fremont, CA)

HIPK3 = target: T8, HIPK3 (Homo sapiens, UniProt Q9H422); experiment: KinomeScan; type: binding; conditions: read-out: % Control
T8 construct: purchased DiscoveRx (Fremont, CA)
T8 sequence (Q9H422 whole entry): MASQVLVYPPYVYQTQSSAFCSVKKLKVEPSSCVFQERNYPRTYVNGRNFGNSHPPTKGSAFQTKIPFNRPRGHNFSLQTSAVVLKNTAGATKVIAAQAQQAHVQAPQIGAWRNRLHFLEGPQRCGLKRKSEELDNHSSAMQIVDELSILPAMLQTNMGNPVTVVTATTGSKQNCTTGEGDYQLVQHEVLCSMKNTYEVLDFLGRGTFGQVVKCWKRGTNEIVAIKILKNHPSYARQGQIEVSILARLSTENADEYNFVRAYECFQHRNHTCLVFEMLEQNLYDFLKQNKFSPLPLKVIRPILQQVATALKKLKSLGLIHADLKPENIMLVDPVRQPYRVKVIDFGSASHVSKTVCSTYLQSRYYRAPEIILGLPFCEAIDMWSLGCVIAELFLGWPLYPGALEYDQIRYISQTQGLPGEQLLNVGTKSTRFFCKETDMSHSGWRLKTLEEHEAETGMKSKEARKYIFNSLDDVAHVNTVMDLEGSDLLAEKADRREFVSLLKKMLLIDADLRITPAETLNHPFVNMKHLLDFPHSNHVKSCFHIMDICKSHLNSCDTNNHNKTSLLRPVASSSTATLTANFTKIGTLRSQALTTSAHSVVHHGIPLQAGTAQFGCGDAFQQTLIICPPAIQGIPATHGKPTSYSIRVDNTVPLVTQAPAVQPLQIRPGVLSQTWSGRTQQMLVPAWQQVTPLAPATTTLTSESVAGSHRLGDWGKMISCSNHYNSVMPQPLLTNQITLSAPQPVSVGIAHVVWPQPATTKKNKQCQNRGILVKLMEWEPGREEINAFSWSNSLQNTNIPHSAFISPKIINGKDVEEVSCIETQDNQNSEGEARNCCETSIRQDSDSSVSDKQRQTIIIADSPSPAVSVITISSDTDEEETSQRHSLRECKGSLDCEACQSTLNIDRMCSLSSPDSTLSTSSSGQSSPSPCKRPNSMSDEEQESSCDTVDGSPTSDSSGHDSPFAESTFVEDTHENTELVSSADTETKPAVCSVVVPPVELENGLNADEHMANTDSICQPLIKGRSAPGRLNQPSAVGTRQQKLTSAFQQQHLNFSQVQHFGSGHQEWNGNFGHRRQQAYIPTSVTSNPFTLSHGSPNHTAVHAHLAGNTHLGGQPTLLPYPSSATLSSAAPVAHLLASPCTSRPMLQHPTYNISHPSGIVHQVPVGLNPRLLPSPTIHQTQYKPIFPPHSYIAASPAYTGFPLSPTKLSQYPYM

ERK8 = target: T9, ERK8 (Homo sapiens, UniProt Q8TD08); experiment: KinomeScan; type: binding; conditions: read-out: % Control
T9 construct: purchased DiscoveRx (Fremont, CA)

TNK1 = target: T10, TNK1 (Homo sapiens, UniProt Q13470); experiment: KinomeScan; type: binding; conditions: read-out: % Control
T10 construct: purchased DiscoveRx (Fremont, CA)
T10 sequence (Q13470 whole entry): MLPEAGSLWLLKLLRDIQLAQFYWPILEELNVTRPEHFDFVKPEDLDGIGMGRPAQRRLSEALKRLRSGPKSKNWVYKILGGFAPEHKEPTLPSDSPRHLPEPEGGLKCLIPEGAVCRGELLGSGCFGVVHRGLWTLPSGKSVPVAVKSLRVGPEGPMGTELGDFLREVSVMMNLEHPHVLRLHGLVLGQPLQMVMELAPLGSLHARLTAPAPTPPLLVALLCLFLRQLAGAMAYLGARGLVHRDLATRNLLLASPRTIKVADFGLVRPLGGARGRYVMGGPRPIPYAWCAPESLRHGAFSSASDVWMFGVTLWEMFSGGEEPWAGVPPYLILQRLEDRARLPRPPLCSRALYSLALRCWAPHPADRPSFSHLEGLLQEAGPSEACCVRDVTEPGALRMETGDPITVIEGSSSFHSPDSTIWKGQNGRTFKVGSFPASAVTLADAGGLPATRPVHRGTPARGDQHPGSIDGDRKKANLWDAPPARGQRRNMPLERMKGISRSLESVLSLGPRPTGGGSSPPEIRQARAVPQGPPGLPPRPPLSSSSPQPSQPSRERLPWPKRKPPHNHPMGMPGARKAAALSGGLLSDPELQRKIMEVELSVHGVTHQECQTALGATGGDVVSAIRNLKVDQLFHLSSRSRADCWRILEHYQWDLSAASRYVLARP

BMX = target: T11, BMX (Homo sapiens, UniProt P51813); experiment: KinomeScan; type: binding; conditions: read-out: % Control
T11 construct: purchased DiscoveRx (Fremont, CA)

GRK4 = target: T12, GRK4 (Homo sapiens, UniProt P32298); experiment: KinomeScan; type: binding; conditions: read-out: % Control
T12 construct: purchased DiscoveRx (Fremont, CA)
T12 sequence (P32298 whole entry): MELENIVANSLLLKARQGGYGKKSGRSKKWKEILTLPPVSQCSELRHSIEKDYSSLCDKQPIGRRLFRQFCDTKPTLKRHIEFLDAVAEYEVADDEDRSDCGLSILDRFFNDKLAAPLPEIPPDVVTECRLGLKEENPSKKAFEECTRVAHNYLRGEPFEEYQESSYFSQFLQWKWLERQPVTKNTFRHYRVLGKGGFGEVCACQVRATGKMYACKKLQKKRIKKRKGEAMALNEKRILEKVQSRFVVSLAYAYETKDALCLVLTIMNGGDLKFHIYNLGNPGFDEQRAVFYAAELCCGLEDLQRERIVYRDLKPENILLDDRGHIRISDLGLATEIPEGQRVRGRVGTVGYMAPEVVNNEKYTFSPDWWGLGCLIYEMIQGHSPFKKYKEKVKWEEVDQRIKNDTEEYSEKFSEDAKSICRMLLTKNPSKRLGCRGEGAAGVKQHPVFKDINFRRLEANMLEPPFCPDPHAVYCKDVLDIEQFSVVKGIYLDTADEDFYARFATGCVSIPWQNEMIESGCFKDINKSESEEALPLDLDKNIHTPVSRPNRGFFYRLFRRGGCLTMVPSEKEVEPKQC

JNK1 = target: T13, JNK1 (Homo sapiens, UniProt P45983); experiment: KinomeScan; type: binding; conditions: read-out: % Control
T13 construct: purchased DiscoveRx

S1P1 = target: T14, S1P1 (Homo sapiens, UniProt P21453); experiment: GPCR Profiler; type: cell-based
T14 construct: host or cells: Chem-1 cells with Gα15
T14 sequence (P21453 whole entry, species assumed): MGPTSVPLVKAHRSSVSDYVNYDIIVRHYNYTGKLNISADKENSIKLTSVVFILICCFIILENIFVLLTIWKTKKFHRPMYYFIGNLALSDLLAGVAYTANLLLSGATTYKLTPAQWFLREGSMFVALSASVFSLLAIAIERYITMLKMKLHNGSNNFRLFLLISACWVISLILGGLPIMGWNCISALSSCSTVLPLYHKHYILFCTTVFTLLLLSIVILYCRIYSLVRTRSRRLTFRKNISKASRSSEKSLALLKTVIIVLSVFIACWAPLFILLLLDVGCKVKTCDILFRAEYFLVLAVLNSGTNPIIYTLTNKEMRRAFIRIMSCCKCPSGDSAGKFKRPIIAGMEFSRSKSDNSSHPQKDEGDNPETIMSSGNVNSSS

NPBW1 = target: T15, NPBW1 (Homo sapiens, UniProt P48145); experiment: GPCR Profiler; type: cell-based
T15 construct: host or cells: Chem-1 cells expressing Gα15
T15 sequence (P48145 whole entry): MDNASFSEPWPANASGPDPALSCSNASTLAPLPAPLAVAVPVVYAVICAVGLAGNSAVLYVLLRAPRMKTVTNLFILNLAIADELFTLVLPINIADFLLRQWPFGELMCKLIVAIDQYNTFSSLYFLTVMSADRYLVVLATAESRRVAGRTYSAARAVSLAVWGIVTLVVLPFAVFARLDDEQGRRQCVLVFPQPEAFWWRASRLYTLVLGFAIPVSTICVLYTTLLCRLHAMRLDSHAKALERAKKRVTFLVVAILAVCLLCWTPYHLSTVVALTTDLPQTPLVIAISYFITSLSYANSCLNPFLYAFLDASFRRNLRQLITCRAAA

IRAK3 = target: T16, IRAK3 (Homo sapiens, UniProt Q9Y616); experiment: KinomeScan; type: binding; conditions: read-out: % Control
T16 construct: purchased DiscoveRx (Fremont, CA)

AXL = target: T17, AXL (Homo sapiens, UniProt P30530); experiment: KinomeScan; type: binding; conditions: read-out: % Control
T17 construct: purchased DiscoveRx (Fremont, CA)

CCK1 = target: T18, CCK1 (Homo sapiens, UniProt P32238); experiment: GPCR Profiler; type: cell-based
T18 construct: host or cells: Chem-1 cells with promiscuous Gα15
T18 sequence (P32238 whole entry): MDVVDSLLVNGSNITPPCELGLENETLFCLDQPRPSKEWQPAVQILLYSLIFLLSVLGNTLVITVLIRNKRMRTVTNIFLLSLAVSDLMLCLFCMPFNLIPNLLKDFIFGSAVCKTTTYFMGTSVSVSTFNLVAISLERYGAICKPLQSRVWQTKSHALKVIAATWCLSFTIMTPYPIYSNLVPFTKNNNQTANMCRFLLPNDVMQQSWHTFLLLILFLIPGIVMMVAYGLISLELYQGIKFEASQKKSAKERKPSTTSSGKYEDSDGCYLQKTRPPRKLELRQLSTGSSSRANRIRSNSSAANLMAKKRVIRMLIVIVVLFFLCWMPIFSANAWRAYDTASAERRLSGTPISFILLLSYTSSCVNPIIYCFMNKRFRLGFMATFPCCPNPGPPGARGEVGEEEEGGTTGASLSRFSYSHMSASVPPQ

PKAC-beta = target: T19, PKAC-beta (Homo sapiens, UniProt P22694); experiment: KinomeScan; type: binding; conditions: read-out: % Control
T19 construct: purchased DiscoveRx (Fremont, CA)

TTK = target: T20, TTK (Homo sapiens, UniProt P33981); experiment: KinomeScan; type: binding; conditions: read-out: % Control
T20 construct: purchased DiscoveRx

[1] = system: human pulmonary artery endothelial cells (HPAECs); experiment: Cyclic stretch-triggered endothelial cell activation; type: cell-based; conditions: for Rho activation by 18% cyclic stretch: OGM2 at 5 μM, OGM1 at 3 μM, Rho-GTP pulldown
Description: FIG. 33A through FIG. 33D: Cyclic stretch-triggered endothelial cell (EC) activation is abolished by OGM2 and OGM1. FIG. 33A: In human pulmonary artery endothelial cells (HPAECs), pretreatment with OGMs (OGM2 at 5 μM and OGM1 at 3 μM) abolished Rho activation by 18% cyclic stretch (18% CS), as determined by Rho-GTP pulldown assay. ST, static condition. FIG. 33B: Treatment with OGM2 or OGM1 blocked CS-triggered activation of myosin phosphatase target (MYPT) and myosin light chain (MLC) in ECs, as determined by their phosphorylation MYPT and MLC. FIG. 33C: OGM2 or OGM1 blocked CS-induced TNF-α mRNA expression in ECs. n=3, ^#P<0.05 versus ST, *P<0.05 versus 18% CS. Error bars, standard deviation. FIG. 33D: OGM2 and OGM1 blocked CS-induced VCAM-1 expression in ECs. Here, OGM=OGM2.

TGFBR2 = target: T21, TGFBR2 (Homo sapiens, UniProt P37173); experiment: KinomeScan; type: binding; conditions: read-out: % Control
T21 construct: purchased DiscoveRx (Fremont, CA)
T21 sequence (P37173 23-567): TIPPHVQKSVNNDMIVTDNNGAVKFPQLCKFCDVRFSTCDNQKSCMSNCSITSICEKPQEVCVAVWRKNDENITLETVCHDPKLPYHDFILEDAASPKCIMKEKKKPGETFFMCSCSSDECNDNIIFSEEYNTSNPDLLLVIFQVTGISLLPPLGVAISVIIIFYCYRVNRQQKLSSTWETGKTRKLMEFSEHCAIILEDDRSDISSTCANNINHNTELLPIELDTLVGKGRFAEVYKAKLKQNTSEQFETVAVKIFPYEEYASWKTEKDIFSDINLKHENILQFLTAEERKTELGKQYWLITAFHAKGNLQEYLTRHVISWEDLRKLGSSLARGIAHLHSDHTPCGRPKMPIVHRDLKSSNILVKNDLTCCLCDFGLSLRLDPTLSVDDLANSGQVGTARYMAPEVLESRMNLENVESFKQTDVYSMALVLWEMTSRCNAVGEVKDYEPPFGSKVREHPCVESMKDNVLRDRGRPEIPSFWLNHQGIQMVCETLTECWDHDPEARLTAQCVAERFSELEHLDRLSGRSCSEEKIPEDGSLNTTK

[2] = concentration causing 50% effective inhibition of calcium response to pH 6.4, read-out: EC50

Question: Which results are given for `CCc1ccc2c(c1)C1(NN=C(c3cccc4ccccc34)S1)C(=O)N2` (stereo not shown) [OGM1, 5-ethyl-5′-naphthalen-1-ylspiro[1H-indole-3,2′-3H-1,3,4-thiadiazole]-2-one]?
Answer: remaining binding at 10 µM (NIM1): 96%; EC50 (GPR68/OGR1; Table 5, read-out: GPR68): 160 nM; EC50 (GPR68/OGR1; [2]): 306 nM; remaining binding at 10 µM (EGFR(L858R)): 100%; remaining binding at 10 µM (MKK7): 99%; reversibility of GPR68 inhibition (GPR68): reversible inhibitor of GPR68; remaining binding at 10 µM (NLK): 100%; remaining binding at 10 µM (INK2): 83%; remaining binding at 10 µM (EPHB3): 100%; remaining binding at 10 µM (HIPK3): 67%; remaining binding at 10 µM (ERK8): 100%; remaining binding at 10 µM (TNK1): 100%; remaining binding at 10 µM (BMX): 100%; remaining binding at 10 µM (GRK4): 96%; remaining binding at 10 µM (JNK1): 63%; Antagonism (S1P1; 10 uM): 3.1; Agonism (S1P1; 12.5 uM): −0.4; Antagonism (NPBW1; 10 uM): 22.8; Agonism (NPBW1; 12.5 uM): 0.5; remaining binding at 10 µM (IRAK3): 97%; remaining binding at 10 µM (AXL): 100%; Antagonism (CCK1; 10 uM): 1.9; Agonism (CCK1; 12.5 uM): 0.8; remaining binding at 10 µM (PKAC-beta): 96%; remaining binding at 10 µM (TTK): 75%; CS-induced TNF-α mRNA expression [1]: blocked; CS-induced VCAM-1 expression [1]: blocked; Rho activation by 18% cyclic stretch [1]: abolished; remaining binding at 10 µM (TGFBR2): 100%

Question: How did the EC50 (GPR68/OGR1; Table 5, read-out: GPR68) turn out when `CCc1ccc2c(c1)C1(NN=C(c3ccccc3)S1)C(=O)N2` (stereo not shown) [OGM2] was run?
Answer: Its EC50 is 710 nM.

Question: What about the EC50 (GPR68/OGR1; [2]) of the same molecule?
Answer: The EC50 was 710 nM.

Question: And the “Time till 50% max” value (GPR68; recovery of GPR68 activity after washout, 10 μM OGM2 for 4 hours, pH 6.4 medium)?
Answer: The value was roughly 52 min.

Question: What about the “reversibility of GPR68 inhibition” value (GPR68) of the same molecule?
Answer: Its value is “reversible and highly specific inhibitor of GPR68”.

Question: What about the “reversibility of GPR68 inhibition” value (GPR68; listed as OM8345) of the same molecule?
Answer: The value was “reversible inhibition of GPR68”.

Question: And the “CS-induced TNF-α mRNA expression” value [1]?
Answer: Its value is “blocked”.

Question: What about the “CS-induced VCAM-1 expression” value [1] of the same molecule?
Answer: Its value is “blocked”.

Question: And the “Rho activation by 18% cyclic stretch” value [1]?
Answer: The value was “abolished”.
